Measured values published in patent US20140206682A1, “COMPOUNDS AND COMPOSITIONS AS PDGFR KINASE INHIBITORS” (NOVARTIS PHARMACEUTICALS UK LIMITED, priority 2011, published 2014).
pIC50: −log10 of the molar value.

The compounds below were run on PDGFR (assay: Rat A10 cell proliferation assay). Details: Table 1; Rat A10 cells, recombinant rat PDGF-BB, CellTiter-Glo after 68 hours.
Assay type: cell-based
Outline: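 Rat A10 cells in DMEM with 1% FBS and 10 ng/mL rat PDGF-BB, preincubated 4 h at 37 °C, then exposed to 3-fold serially diluted compound for 68 h. Viability/proliferation read as CellTiter-Glo luminescence.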

Compound	pIC50
Cn1nccc1-c1ccn2c(C(=O)Nc3cc(C(=O)N[C@@H]4Cc5ccccc5[C@@H]4O)ccc3F)cnc2c1 [F15, N-(2-fluoro-5-{[(1S,2R)-1-hydroxy-2,3-dihydro-1H-inden-2-yl]carbamoyl}phenyl)-7-(1-methyl-1H-pyrazol-5-yl)imidazo[1,2-a]pyridine-3-carboxamide]	7.36
C[C@@]1(O)CCCC[C@@H]1NC(=O)c1ccc(F)c(NC(=O)c2cnc3ccccn23)c1 [F124, N-(2-fluoro-5-{[(1S,2R)-2-hydroxy-2-methylcyclohexyl]carbamoyl}phenyl)imidazo[1,2-a]pyridine-3-carboxamide]	6.73
O=C(N[C@@H]1c2ccccc2C[C@@H]1O)c1ccc(F)c(NC(=O)c2cnc3ccc(F)cn23)c1 [F27, 6-fluoro-N-(2-fluoro-5-{[(1R,2S)-2-hydroxy-2,3-dihydro-1H-inden-1-yl]carbamoyl}phenyl)imidazo[1,2-a]pyridine-3-carboxamide]	6.77
O=C(N[C@@H](CO)[C@@H](O)c1ccccc1)c1ccc(F)c(NC(=O)c2cnc3ccccn23)c1 [F123, N-(5-{[(1S,2S)-1,3-dihydroxy-1-phenylpropan-2-yl]carbamoyl}-2-fluorophenyl)imidazo[1,2-a]pyridine-3-carboxamide]	7.36
Cc1ccc(C(=O)NCc2ccccc2N2CCCC(O)C2)cc1NC(=O)c1cnc2ccccn12 (stereo not drawn) [F30, N-[5-({[2-(3-hydroxypiperidin-1-yl)phenyl]methyl}carbamoyl)-2-methylphenyl]imidazo[1,2-a]pyridine-3-carboxamide]	7.57
Cc1ccc(C(=O)NC(CO)C(C)C)cc1NC(=O)c1cnc2ccccn12 (stereo not drawn) [F3, N-{5-[(1-hydroxy-3-methylbutan-2-yl)carbamoyl]-2-methylphenyl}imidazo[1,2-a]pyridine-3-carboxamide]	6.76
Cc1ccn2c(C(=O)Nc3cc(C(=O)N[C@H]4CCCC[C@@H]4O)ccc3F)cnc2c1 [F115, N-(2-fluoro-5-{[(1S,2S)-2-hydroxycyclohexyl]carbamoyl}phenyl)-7-methylimidazo[1,2-a]pyridine-3-carboxamide]	7.36
O=C(NC[C@@H](O)c1ccc(Cl)cc1)c1ccc(F)c(NC(=O)c2cnc3ccccn23)c1 [F121, N-(5-{[(2S)-2-(4-chlorophenyl)-2-hydroxyethyl]carbamoyl}-2-fluorophenyl)imidazo[1,2-a]pyridine-3-carboxamide]	7.89
O=C(N[C@@H]1CCCC[C@H]1CO)c1ccc(F)c(NC(=O)c2cnc3ccccn23)c1 [F24, N-(2-fluoro-5-{[(1R,2R)-2-(hydroxymethyl)cyclohexyl]carbamoyl}phenyl)imidazo[1,2-a]pyridine-3-carboxamide]	7.03
O=C(NC1Cc2ccccc2C1O)c1ccc(F)c(NC(=O)c2cnc3cc(Br)ccn23)c1 (stereo not drawn) [F10, 7-bromo-N-{2-fluoro-5-[(1-hydroxy-2,3-dihydro-1H-inden-2-yl)carbamoyl]phenyl}imidazo[1,2-a]pyridine-3-carboxamide]	6.89
COc1ccc2c(c1)[C@@H](NC(=O)c1ccc(F)c(NC(=O)c3cnc4ccc(C)cn34)c1)[C@@H](O)C2 [F111, N-(2-fluoro-5-{[(1R,2S)-2-hydroxy-6-methoxy-2,3-dihydro-1H-inden-1-yl]carbamoyl}phenyl)-6-methylimidazo[1,2-a]pyridine-3-carboxamide]	6.71
Cc1ccc2ncc(C(=O)Nc3cc(C(=O)N[C@@H]4c5cc(F)ccc5C[C@@H]4O)ccc3F)n2c1 [F29, N-(2-fluoro-5-{[(1R,2S)-6-fluoro-2-hydroxy-2,3-dihydro-1H-inden-1-yl]carbamoyl}phenyl)-6-methylimidazo[1,2-a]pyridine-3-carboxamide]	6.98
COC[C@H](NC(=O)c1ccc(F)c(NC(=O)c2cnc3ccccn23)c1)[C@@H](O)c1ccccc1 [F118, N-(2-fluoro-5-{[(1S,2S)-1-hydroxy-3-methoxy-1-phenylpropan-2-yl]carbamoyl}phenyl)imidazo[1,2-a]pyridine-3-carboxamide]	7.39
O=C(NC[C@@H]1CCCC[C@H]1O)c1ccc(F)c(NC(=O)c2cnc3ccccn23)c1 [F116, N-[2-fluoro-5-({[(1S,2R)-2-hydroxycyclohexyl]methyl}carbamoyl)phenyl]imidazo[1,2-a]pyridine-3-carboxamide]	7.19

Same assay, conditions: Table 2; Rat A10 cells, recombinant rat PDGF-BB, CellTiter-Glo after 68 hours

Compound	pIC50
O=C(N[C@H]1CCCC[C@H]1O)c1ccc(F)c(NC(=O)c2cnc3ccccn23)c1 [F50, N-(2-fluoro-5-{[(1S,2R)-2-hydroxycyclohexyl]carbamoyl}phenyl)imidazo[1,2-a]pyridine-3-carboxamide]	6.43
O=C(NCC1(O)CCC1)c1cccc(NC(=O)c2cnc3ccccn23)c1 [F73, N-(3-{[(1-hydroxycyclobutyl)methyl]carbamoyl}phenyl)imidazo[1,2-a]pyridine-3-carboxamide]	5.49
COc1ccc2ncc(C(=O)Nc3cc(C(=O)N[C@H]4c5ccccc5C[C@H]4O)ccc3F)n2c1 [F35, N-(2-fluoro-5-{[(1S,2R)-2-hydroxy-2,3-dihydro-1H-inden-1-yl]carbamoyl}phenyl)-6-methoxyimidazo[1,2-a]pyridine-3-carboxamide]	6.64
O=C(N[C@@H]1Cc2ccccc2[C@H]1O)c1ccc(F)c(NC(=O)c2cnc3ccccn23)c1 [F37, N-(2-fluoro-5-{[(1R,2R)-1-hydroxy-2,3-dihydro-1H-inden-2-yl]carbamoyl}phenyl)imidazo[1,2-a]pyridine-3-carboxamide]	6.62
Cc1ccc2ncc(C(=O)Nc3cc(C(=O)N[C@@H]4c5ccc(Cl)cc5C[C@@H]4O)ccc3F)n2c1 (stereo in doubt) [F41, N-(5-{[(1R,2S)-5-chloro-2-hydroxy-2,3-dihydro-1H-inden-1-yl]carbamoyl}-2-fluorophenyl)-6-methylimidazo[1,2-a]pyridine-3-carboxamide]	6.57
O=C(NC1(CO)CCCC1)c1cccc(NC(=O)c2cnc3ccccn23)c1 [F77, N-(3-{[1-(hydroxymethyl)cyclopentyl]carbamoyl}phenyl)imidazo[1,2-a]pyridine-3-carboxamide]	5.02
O=C(N[C@H]1c2ccccc2C[C@H]1O)c1ccc(F)c(NC(=O)c2cnc3ccc(-n4ccnc4)cn23)c1 [F81, N-(2-fluoro-5-{[(1S,2R)-2-hydroxy-2,3-dihydro-1H-inden-1-yl]carbamoyl}phenyl)-6-(1H-imidazol-1-yl)imidazo[1,2-a]pyridine-3-carboxamide]	< 5.00
O=C(N[C@H]1c2ccccc2C[C@H]1O)c1ccc(F)c(NC(=O)c2cnc3cc(F)ccn23)c1 [F60, 7-fluoro-N-(2-fluoro-5-{[(1S,2R)-2-hydroxy-2,3-dihydro-1H-inden-1-yl]carbamoyl}phenyl)imidazo[1,2-a]pyridine-3-carboxamide]	6.22
O=C(NC1CCCC[C@H]1CO)c1ccc(F)c(NC(=O)c2cnc3ccccn23)c1 (stereo in doubt) [F43, N-(2-fluoro-5-{[(1R,2R)-2-(hydroxymethyl)cyclohexyl]carbamoyl}phenyl)imidazo[1,2-a]pyridine-3-carboxamide]	6.53
O=C(NCC1(O)CCNCC1)c1ccc(F)c(NC(=O)c2cnc3ccccn23)c1 [F100, N-(2-fluoro-5-{[(4-hydroxypiperidin-4-yl)methyl]carbamoyl}phenyl)imidazo[1,2-a]pyridine-3-carboxamide]	< 5.04
O=C(N[C@H]1Cc2ccccc2[C@H]1O)c1ccc(F)c(NC(=O)c2cnc3ccccn23)c1 (stereo in doubt) [F46, N-(2-fluoro-5-{[(1R,2S)-1-hydroxy-2,3-dihydro-1H-inden-2-yl]carbamoyl}phenyl)imidazo[1,2-a]pyridine-3-carboxamide]	6.46
CN(C)CCCOc1ccc(-c2ccn3c(C(=O)Nc4cc(C(=O)N[C@@H]5Cc6ccccc6[C@@H]5O)ccc4F)cnc3c2)cn1 [F39, 7-{6-[3-(dimethylamino)propoxy]pyridin-3-yl}-N-(2-fluoro-5-{[(1S,2R)-1-hydroxy-2,3-dihydro-1H-inden-2-yl]carbamoyl}phenyl)imidazo[1,2-a]pyridine-3-carboxamide]	6.60
O=C(N[C@H]1CCCC[C@@H]1CO)c1ccc(F)c(NC(=O)c2cnc3ccccn23)c1 [F51, N-(2-fluoro-5-{[(1S,2S)-2-(hydroxymethyl)cyclohexyl]carbamoyl}phenyl)imidazo[1,2-a]pyridine-3-carboxamide]	6.41
Cc1ccc2ncc(C(=O)Nc3cc(C(=O)N[C@@H]4c5ccc(Cl)cc5C[C@@H]4O)ccc3F)n2c1 [F84, N-(5-{[(1R,2S)-5-chloro-2-hydroxy-2,3-dihydro-1H-inden-1-yl]carbamoyl}-2-fluorophenyl)-6-methylimidazo[1,2-a]pyridine-3-carboxamide]	6.23
CSCC[C@@H](CO)NC(=O)c1ccc(F)c(NC(=O)c2cnc3ccccn23)c1 [F96, N-(2-fluoro-5-{[(2S)-1-hydroxy-4-(methylsulfanyl)butan-2-yl]carbamoyl}phenyl)imidazo[1,2-a]pyridine-3-carboxamide]	6.25
O=C(N[C@H]1CCCC1O)c1ccc(F)c(NC(=O)c2cnc3ccccn23)c1 (stereo in doubt) [F62, N-(2-fluoro-5-{[(1S,2S)-2-hydroxycyclopentyl]carbamoyl}phenyl)imidazo[1,2-a]pyridine-3-carboxamide]	6.16
CCC[C@@H](CO)NC(=O)c1ccc(F)c(NC(=O)c2cnc3ccccn23)c1 [F49, N-(2-fluoro-5-{[(2S)-1-hydroxypentan-2-yl]carbamoyl}phenyl)imidazo[1,2-a]pyridine-3-carboxamide]	6.43
CSc1ccc([C@H](O)[C@H](CO)NC(=O)c2ccc(F)c(NC(=O)c3cnc4ccccn34)c2)cc1 [F92, N-(5-{[(1S,2S)-1,3-dihydroxy-1-[4-(methylsulfanyl)phenyl]propan-2-yl]carbamoyl}-2-fluorophenyl)imidazo[1,2-a]pyridine-3-carboxamide]	6.55
C[C@@]1(O)CCCC[C@H]1NC(=O)c1ccc(F)c(NC(=O)c2cnc3ccccn23)c1 [F103, N-(2-fluoro-5-{[(1R,2R)-2-hydroxy-2-methylcyclohexyl]carbamoyl}phenyl)imidazo[1,2-a]pyridine-3-carboxamide]	< 5.00
